Results published in US20130196999A1, “METHODS OF CONTROLLING NEONICOTINOID RESISTANT APHIDS” (SYNGENTA CROP PROTECTION LLC, priority 2010, published 2013).

How the values were obtained:
[1] = system: neonicotinoid insecticide resistant aphid strain; test: Leaf disc spray bioassay, aphid mortality, resistant strain; assay type: in vivo, aphids; settings: for LC50 with 95% confidence limit, resistant strain: mixed age aphids on chinese cabbage leaf discs, Potter Tower spray, mortality 72 hours after treatment, strain collected from peach orchard, Avignon region, 2009
Experimental: (§1) The following bioassay methodology was utilized to generate the data included in the table:
(§2) 5 cm leaf discs were taken from fully expanded chinese cabbage leaves and placed with the underside facing upwards onto water agar in 5 cm Petri dishes. The leaf discs are infested with between 30 and 40 mixed age aphids 24 hours prior to insecticide treatment. The leaf surface is sprayed with the appropriate test solutions in a Burkhard Potter Tower at an approximate water volume of […]. Test containers are stored at 21° C., 60% RH and 16:8 light/dark. Aphids were assessed for mortality 72 hours after treatment.

[2] = system: neonicotinoid insecticide susceptible strain 4106A; test: Leaf disc spray bioassay, aphid mortality, susceptible strain; assay type: in vivo; settings: mixed age aphids on chinese cabbage leaf discs, Potter Tower spray, mortality 72 hours after treatment; strain 4106A from Rothamsted Research
Experimental: as §1, §2

| SMILES | LC50 with 95% confidence limit, resistant strain [1] | cross-resistance with neonicotinoid insecticides ([1]; neonicotinoid resistant populations of aphids) | LC50 with 95% confidence limit, susceptible strain [2] |
| --- | --- | --- | --- |
| CC1=NNC(=O)N(N=Cc2cccnc2)C1 [pymetrozine, 4,5-dihydro-6-methyl-4-(3-pyridylmethyleneamino)-1,2,4-triazin-3(2H)-one] | 3.07 (0.97-6.59) ppm | no cross-resistance | 0.52 (0.4-0.66) ppm |
| CN1COCN(Cc2cnc(Cl)s2)/C1=N\[N+](=O)[O-] [thiamethoxam, reference compound] | 148 (128-172) ppm |  | 0.35 (0.3-0.41) ppm |
